# Experimental data: US7964531B2, “3-phenoxy-4-pyridazinol derivatives and herbicidal composition containing the same” (Mitsui Chemicals Agro, Inc., priority 2001, dated 2011)
# Tests used:
# Type in all cases: in vivo
# Cyperus serotinus [1] = test: Test Example 1: herbicidal effects, paddy-field pot test; settings: wettable powder applied 3 days after transplanting, judged after 25 days
# In short: (§1)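 Scores are growth inhibition ratings from 0 (0–10%) to 5 (91–100%), judged 25 days after a water-diluted wettable powder was applied to flooded pots. Treatment followed transplanting of 2.2-leaf rice by 3 days; weeds were seeded at the soil surface or planted as germinated tubers.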
# Scirpus joncoides [2] = test: as above; settings: wettable powder applied 3 days after transplanting, judged after 25 days
# In short: as §1
# [3] = tested on: annual broad-leaved weeds (Lindernia spp., Rotala indica); test: as above; settings: wettable powder applied 3 days after transplanting, judged after 25 days
# In short: as §1
# [4] = tested on: barnyardgrass (Echinochloa oryzicola Vasing.); test: as above; settings: wettable powder applied 3 days after transplanting, judged after 25 days
# In short: as §1
# [5] = tested on: transplanted paddy-field rice; test: Test Example 1: crop injury against transplanted paddy-field rice; settings: wettable powder applied 3 days after transplanting, judged after 25 days
# In short: as §1
# barnyardgrass = test: Test Example 2: herbicidal effects (soil treatment); settings: dosage 2 kg/a; soil treatment the day after seeding; judged after 21 days
# In short: (§2)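 Pre-emergence test: seeds sown in upland soil in 150 cm^2 pots in a greenhouse, wettable powder diluted in water applied to soil surface the day after sowing at a predetermined dosage. Growth inhibition scored 21 days after treatment on a 0–5 scale (0: 0–10% to 5: 91–100%).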
# [6] = tested on: indian mustard (Brassica juncea (L.) Czern. et Coss); test: as above; settings: dosage 2 kg/a; soil treatment the day after seeding; judged after 21 days
# In short: as §2
# black nightshade = test: Test Example 3: herbicidal effects (foliar treatment); settings: chemical dosage 2 kg/a; foliar treatment at 10 to 15 cm; judged after 14 days
# Experimental: (§3) Judgment Standard • 0: Growth inhibition rate; 0 to 10% • 1: Growth inhibition rate; 11 to 30% • 2: Growth inhibition rate; 31 to 50% • 3: Growth inhibition rate; 51 to 70% • 4: Growth inhibition rate; 71 to 90% • 5: Growth inhibition rate; 91 to 100%.
# (§4) Upland soil was filled in 150 cm^2 pot, and seeds of velvetleaf, tall morningglory, indian mustard, black nightshade redroot pigweed were sowed, and grown in a greenhouse. After the weeds were grown with 10 to 15 cm or so, a predetermined chemical dosage of the wettable powder prepared in accordance with Preparation example 1 was diluted with water containing 0.05% of GRAMIN-S and applied as a foliar treatment. After 14 days from the treatment, herbicidal effects were judged in accordance with the judgment standard of Test example 1, and the results were shown in Table 4. Incidentally, “-” in the table means no test was carried out.
# indian mustard = test: as above; settings: chemical dosage 2 kg/a; foliar treatment at 10 to 15 cm; judged after 14 days
# Experimental: as §3, §4
# redroot pigweed = test: as above; settings: chemical dosage 2 kg/a; foliar treatment at 10 to 15 cm; judged after 14 days
# Experimental: as §3, §4
# tall morningglory = test: as above; settings: chemical dosage 2 kg/a; foliar treatment at 10 to 15 cm; judged after 14 days
# Experimental: as §3, §4
# velvetleaf = test: as above; settings: chemical dosage 2 kg/a; foliar treatment at 10 to 15 cm; judged after 14 days
# Experimental: as §3, §4
# Cyperus serotinus [7] = test: Test Example 4: herbicidal effects of mixed wettable powder, paddy-field pot test; settings: no second compound, after 25 days
# In short: (§5)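 Flooded greenhouse pots of paddy soil were sown in the top 1 cm with dormancy-broken weed seeds and planted with tubers, and 2.2-leaf rice was transplanted. Three days later, water-diluted wettable powder was applied at set dosages, and growth inhibition was rated 25 days after that on a 0 (0–15%) to 5 (96–100%) scale.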
# Eleocharis kuroguwai = test: as above; settings: no second compound, after 25 days
# In short: as §5
# Sagittaria pygmaea = test: as above; settings: no second compound, after 25 days
# In short: as §5
# Scirpus joncoides [8] = test: as above; settings: no second compound, after 25 days
# In short: as §5
# [9] = tested on: annual broad-leaved weeds (Lindernia spp. and Rotala indica); test: as above; settings: no second compound, after 25 days
# In short: as §5
# [10] = tested on: barnyardgrass (Echinochloa oryzicola Vasing.); test: as above; settings: no second compound, after 25 days
# In short: as §5
# [11] = tested on: transplanted paddy-field rice; test: Test Example 4: crop injury against transplanted paddy-field rice; settings: no second compound, after 25 days
# In short: as §5
smiles,measurement,setting,value
Cc1cccc(C2CC2)c1Oc1nnc(Cl)cc1O [Example 23],Herbicidal effects Cyperus serotinus,Cyperus serotinus [1]; chemical dosage 10 g/a,5 (Growth inhibition rate; 91 to 100%)
same,Herbicidal effects Cyperus serotinus,Cyperus serotinus [1]; chemical dosage 20 g/a,5 (Growth inhibition rate; 91 to 100%)
same,Herbicidal effects Scirpus joncoides,Scirpus joncoides [2]; chemical dosage 10 g/a,5 (Growth inhibition rate; 91 to 100%)
same,Herbicidal effects Scirpus joncoides,Scirpus joncoides [2]; chemical dosage 20 g/a,5 (Growth inhibition rate; 91 to 100%)
same,Herbicidal effects Broad leaf,[3]; chemical dosage 10 g/a,5 (Growth inhibition rate; 91 to 100%)
same,Herbicidal effects Broad leaf,[3]; chemical dosage 20 g/a,5 (Growth inhibition rate; 91 to 100%)
same,Herbicidal effects Barnyard grass,[4]; chemical dosage 10 g/a,3 (Growth inhibition rate; 51 to 70%)
same,Herbicidal effects Barnyard grass,[4]; chemical dosage 20 g/a,4 (Growth inhibition rate; 71 to 90%)
same,Crop injury against transplanted rice,[5]; chemical dosage 10 g/a,0 (Growth inhibition rate; 0 to 10%)
same,Crop injury against transplanted rice,[5]; chemical dosage 20 g/a,2 (Growth inhibition rate; 31 to 50%)
same,Herbicidal effects Barnyard-grass,barnyardgrass,4 (Growth inhibition rate; 71 to 90%)
same,Herbicidal effects indian mustard,[6],5 (Growth inhibition rate; 91 to 100%)
same,Herbicidal effects Black Night-shade,black nightshade,5 (Growth inhibition rate; 91 to 100%)
same,Herbicidal effects indian mustard,indian mustard,5 (Growth inhibition rate; 91 to 100%)
same,Herbicidal effects Redroot pigweed,redroot pigweed,4 (Growth inhibition rate; 71 to 90%)
same,Herbicidal effects Tall Morningglory,tall morningglory,5 (Growth inhibition rate; 91 to 100%)
same,Herbicidal effects Velvet-leaf,velvetleaf,4 (Growth inhibition rate; 71 to 90%)
same,Herbicidal effects Cyperus serotinus,Cyperus serotinus [7]; derivative 5 g/a,5 (Growth inhibition rate; 96 to 100%)
same,Herbicidal effects Cyperus serotinus,Cyperus serotinus [7]; derivative 10 g/a,5 (Growth inhibition rate; 96 to 100%)
same,Herbicidal effects Eleocharis kuroguwai,Eleocharis kuroguwai; derivative 5 g/a,2 (Growth inhibition rate; 36 to 55%)
same,Herbicidal effects Eleocharis kuroguwai,Eleocharis kuroguwai; derivative 10 g/a,3 (Growth inhibition rate; 56 to 75%)
same,Herbicidal effects Sagittaria pygmaea,Sagittaria pygmaea; derivative 5 g/a,5 (Growth inhibition rate; 96 to 100%)
same,Herbicidal effects Sagittaria pygmaea,Sagittaria pygmaea; derivative 10 g/a,5 (Growth inhibition rate; 96 to 100%)
same,Herbicidal effects Scirpus joncoides,Scirpus joncoides [8]; derivative 5 g/a,5 (Growth inhibition rate; 96 to 100%)
same,Herbicidal effects Scirpus joncoides,Scirpus joncoides [8]; derivative 10 g/a,5 (Growth inhibition rate; 96 to 100%)
same,Herbicidal effects Broad leaf,[9]; derivative 5 g/a,5 (Growth inhibition rate; 96 to 100%)
same,Herbicidal effects Broad leaf,[9]; derivative 10 g/a,5 (Growth inhibition rate; 96 to 100%)
same,Herbicidal effects Barnyard grass,[10]; derivative 5 g/a,2 (Growth inhibition rate; 36 to 55%)
same,Herbicidal effects Barnyard grass,[10]; derivative 10 g/a,3 (Growth inhibition rate; 56 to 75%)
same,Crop injury against transplanted rice,[11]; derivative 5 g/a,0 (Growth-inhibition rate; 0 to 15%)
same,Crop injury against transplanted rice,[11]; derivative 10 g/a,0 (Growth-inhibition rate; 0 to 15%)
